Experiments:
MC38 colon carcinoma = assay: Tumor growth inhibition with chemotherapy or cancer immunotherapy combinations in subcutaneous syngeneic MC38 colon carcinoma model; assay type: in vivo, C57BL/6N mice; details: for TCR (day 21) / TGI (day 21): compared to control antibody; for TGI (day 21): antibody 30 mg/kg i.p. weekly; for Median time to progression TV > 700 mm3: mouse, in vivo
Description: Inhibition of Tumor Growth Under Treatment with Anti-CSF-1R Monoclonal Antibody in Combination with Chemotherapy or Cancer Immunotherapy in Subcutaneous Syngeneic MC38 Colon Carcinoma Models

primary tumor growth = assay: Docetaxel combined with anti-mouse CSF-1R antibody (separate experiment); assay type: in vivo
Protocol: Docetaxel was administered 3 times weekly as 1 cycle followed by 3 weeks drug holiday.

Row | Molecule | TCR (day 21) (MC38 colon carcinoma) | TGI (day 21) (MC38 colon carcinoma) | Median time to progression TV > 700 mm3 (MC38 colon carcinoma) | npTCR (primary tumor growth; after 2 cycles of docetaxel) | TGI (primary tumor growth; after 2 cycles of docetaxel, docetaxel 3 mg/kg i.v., antibody 30 mg/kg i.p. weekly) | median survival time (primary tumor growth; in vivo) | TGI (day 21) (MC38 colon carcinoma; listed as IL2)
1 | O=C1[O][Pt]2([NH][C@@H]3CCCC[C@H]3[NH]2)[O]C1=O [Oxaliplatin] | 0.54 | 46% | 21 |  |  |  | 
2 | CC(=O)O[C@@]12CO[C@@H]1C[C@H](O)[C@@]1(C)C(=O)[C@H](O)C3=C(C)[C@@H](OC(=O)[C@H](O)[C@@H](NC(=O)OC(C)(C)C)c4ccccc4)C[C@@](O)([C@@H](OC(=O)c4ccccc4)[C@H]21)C3(C)C [docetaxel] |  |  |  | 0.55 | 75% | 154 days | 
3 | Proleukin: IL-2 (Proleukin, Novartis) | 0.53 | 47% | 21 |  |  |  | 47%
